Assay results as given in US8703953B2, “Aryl ether-base kinase inhibitors” (Bristol-Myers Squibb Company, priority 2012, dated 2014).

Key:
GST-Xa-hAAK1 = molecular target: T1, GST-Xa-hAAK1 (Homo sapiens, UniProt Q2M2I8); test: AAK1 Kinase Assay (Caliper LabChip, fluoresceinated peptide substrate); assay type: biochemical; conditions: ATP 22 μM
T1 construct: made in house
Method: The assays were performed in U-bottom 384-well plates. The final assay volume was 30 μl prepared from 15 μl additions of enzyme and substrates (fluoresceinated peptide (5-FAM)-Aha-[…]-NH2 and ATP) and test compounds in assay buffer (10 mM Tris-HCL pH 7.4, 10 mM MgCl2, 0.01% Tween-20 and 1.0 mM DTT). The reactions were initiated by the combination of bacterially expressed, GST-Xa-hAAK1 with substrates and test compounds. The reactions were incubated at room temperature for 3 hours and terminated by adding 60 μl of 35 mM EDTA buffer to each sample. The reactions were analyzed on the Caliper LabChip 3000 (Caliper, Hopkinton, Mass.) by electrophoretic separation of the fluorescent substrate and phosphorylated product. […] The final concentration of reagents in the assays are ATP, 22 μM; (5-FAM)-Aha-[…]-NH2, 1.5 μM; GST-Xa-hAAK1, 3.5 nM; and DMSO, 1.6%. Dose response curves were generated to determine the concentration required inhibiting 50% of kinase activity (IC50). Compounds were dissolved at 10 mM in dimethylsulfoxide (DMSO) and evaluated at eleven concentrations. IC50 values were derived by non-linear regression analysis.

AAK1 (full length human) = molecular target: T2, AAK1 (full length human) (Homo sapiens, UniProt Q2M2I8); test: HEK281 Cell-Based Assay (HEK293F cells transfected with AAK1 and AP2M1; phospho-mu2 Western blot); conditions: 3 h
T2 construct: HA; expressed in transfected cells; host or cells: HEK293F
T2 sequence (Q2M2I8 whole entry): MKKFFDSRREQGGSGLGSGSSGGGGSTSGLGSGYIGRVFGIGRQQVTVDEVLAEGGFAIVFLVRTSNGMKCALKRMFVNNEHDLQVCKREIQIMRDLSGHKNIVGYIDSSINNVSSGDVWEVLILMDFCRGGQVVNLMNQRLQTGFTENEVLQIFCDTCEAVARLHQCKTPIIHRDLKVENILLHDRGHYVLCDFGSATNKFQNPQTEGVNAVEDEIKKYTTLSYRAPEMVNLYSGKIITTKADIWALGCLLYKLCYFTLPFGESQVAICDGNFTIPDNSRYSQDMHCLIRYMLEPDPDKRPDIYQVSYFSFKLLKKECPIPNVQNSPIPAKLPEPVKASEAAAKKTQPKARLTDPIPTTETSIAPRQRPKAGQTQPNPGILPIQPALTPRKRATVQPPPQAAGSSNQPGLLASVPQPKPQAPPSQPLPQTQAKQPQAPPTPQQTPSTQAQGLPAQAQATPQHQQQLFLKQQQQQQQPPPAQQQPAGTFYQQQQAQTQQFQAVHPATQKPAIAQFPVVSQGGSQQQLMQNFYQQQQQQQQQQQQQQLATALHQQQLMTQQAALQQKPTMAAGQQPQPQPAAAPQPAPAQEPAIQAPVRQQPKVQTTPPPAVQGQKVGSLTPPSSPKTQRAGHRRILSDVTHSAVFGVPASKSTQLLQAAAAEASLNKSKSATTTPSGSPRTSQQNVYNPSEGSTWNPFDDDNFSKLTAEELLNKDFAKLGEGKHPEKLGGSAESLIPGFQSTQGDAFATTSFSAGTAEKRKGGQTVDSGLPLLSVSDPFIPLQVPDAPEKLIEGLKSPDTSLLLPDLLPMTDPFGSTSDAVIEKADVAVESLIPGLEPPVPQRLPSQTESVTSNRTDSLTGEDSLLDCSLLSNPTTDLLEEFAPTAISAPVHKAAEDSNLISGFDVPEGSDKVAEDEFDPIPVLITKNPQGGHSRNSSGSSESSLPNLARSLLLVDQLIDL
Method: HEK293F cells were cultured in media containing DMEM (Gibco, cat. #11965), 10% FBS (SAFC Biosciences, cat. #12103C), 1× GPS (glutamine, penicillin and streptomycin). On day one, cells were plated on a 10 cm dish so that they are ˜80% confluent at time of transfection. Roughly 12 million cells were in a 10 cm dish at time of transfection. On day two, each dish was transfected with 48 ug DNA and 144 μl Lipofectamine 2000 (Invitrogen, cat. #11668-019). The DNA was comprised of a mixture (per 10 cm dish) containing 3 ug AAK1/HA/pIRES (full length human, NCBI accession no. NP_055726.2), 45 μg Flag/AP2MI/pcDNA (full length human), and 1.5 ml OPTI-MEM. The Lipofectamine 2000 is made up of a mixture (per 10 cm dish) containing 144 μl Lipofectamine 2000 and 1.5 ml OPTI-MEM. Each mixture was transferred to individual 15 ml tubes and incubated at RT for 5 minutes, and then the two mixes were combined and incubated at RT for 20 minutes. Growth media was then aspirated from each 10 cm plate and replaced with 10 ml of DMEM+10% FBS (no GPS). Finally, 3 ml DNA/Lipofectamine mix was added to each 10 cm dish and mix gently followed by incubate of plate overnight at 37° C. and 5% CO2.
On day three, compounds were diluted in 100% DMSO at 1000× final concentration, followed by 3-fold serial dilutions for a total of 5 concentrations tested. Four compounds were tested per 10 cm dish. One ul of each compound dilution was then pipetted into a deep-well, 96-well plate, followed by addition of 500 μl DMEM+0.5% FBS into each well for a 2× final concentration of each compound. Cells were resuspended in a 10 cm dish by simple pipetting (HEK293 cells come off the plate that easy at this point) and then transferred to a 50 ml conical tube and pelleted by centrifugation at 1000 rpm for 5 min. Cell pellets were then resuspended in 2.75 ml DMEM+0.5% FBS per 10 cm dish and 100 μl of cell suspension transferred into each well of 96-well TC plate. Finally, 100 μl of 2× compound diluted in DMEM+0.5% FBS was then added into wells containing cell suspension for a 1× final concentration. Plates were then incubated at 37° C. and 5% CO2 for 3 hours followed by transferring of cell suspensions from each well into 12-tube PCR strips. The PCR strips were spun in a tip rack at 1000 rpm for 5 minutes to pellet cells and media was then removed by pipetting without disturbing the cell pellet.
To prepare for Western Blot analysis, cell pellets were resuspend in 40 ul 1× LDS-PAGE sample buffer (Invitrogen, cat. #NP0008)+2× Halt phophatase and protease inhibitor cocktail (Thermo Scientific, cat. #1861284), followed by sonicating each with microtip sonicator set at 5 for 8-10 seconds. Five ul of 10× NuPage Sample Reducing Agent (with […]) was to each sample followed by heat denaturing at 70C for 10 min on PCR machine. A total of 10 μl per sample was loaded into each lane of a 4-20% Tris-Glycine Criterion 26-well gel (Biorad, cat. #345-0034) for the phospho-mu2 blot and 10 μl per lane in a 4-12% Bis-Tris (+MES buffer) NuPAGE 26-well gel (Invitrogen, cat. #WG1403BX10) for the mu2 blot. For controls, 2 ng of phospho-mu2 or 20 ng mu2/Flag proteins were loaded in the last well of each gel. After SDS-PAGE, samples on each gel were transferred to PVDF membrane using an iBlot and membranes were blocked for one hour in TBST+5% milk, followed by wash 3× for 5-10 min with TBST. Criterion gels were probed with rabbit anti-phospho-mu2 (1:5000; a rabbit polyclonal antibody produced by New England Peptide and affinity purified at Lexicon) in TBST+5% BSA, whereas, NuPAGE gels were probed with mouse anti-Flag (1:500; Sigma, cat. #F1804) in TBST+5% milk, and these primary antibodies were incubated overnight at 4° C. on a rocker. […]

T1 sequence (Q2M2I8 whole entry): as above

Compound | IC50 (GST-Xa-hAAK1; listed as IC50 ranges) [nM] | other results
CC(C)C[C@H](N)COc1ccc2c(c1)OC(C)c1cnccc1-2 (mixture of isomers) [Example 6, (2S)-4-methyl-1-(5-methyl-5H-chromeno[3,4-c]pyridin-8-yloxy)pentan-2-amine] | 1 to 10 | 
CC(C)C[C@H](N)COc1ccc2c(c1)OC(C1CC1)c1cnccc1-2 (mixture of isomers) [Example 8, (2S)-1-(5-cyclopropyl-5H-chromeno[3,4-c]-pyridin-8-yloxy)-4-methylpentan-2-amine] | 10 to 100 | IC50 (AAK1 (full length human); listed as IC50 ranges): 10 to 100 nM
CCC1Oc2cc(OC[C@@H](N)CC(C)C)ccc2-c2ccncc21 (mixture of isomers) [Example 10, (2S)-1-(5-ethyl-5H-chromeno[3,4-c]pyridin-8-yloxy)-4-methylpentan-2-amine] | 10 to 100 | IC50 (AAK1 (full length human); listed as IC50 ranges): 10 to 100 nM
NC(CCC(F)(F)F)COc1ccc2c(c1)OCc1cnccc1-2 (racemic) [Example 17, 1-(5H-chromeno[3,4-c]pyridin-8-yloxy)-5,5,5-trifluoropentan-2-amine] | 10 to 100 | IC50 (AAK1 (full length human); listed as IC50 ranges): 10 to 100 nM
CC(C)C[C@@H](N)COc1ccc2c(c1)OC(C)c1cnccc1-2 (single isomer, unassigned) [Example 7b] | 10 to 100 | 
CC(C)C[C@H](N)COc1ccc2c(c1)OC(C1CC1)c1cnccc1-2 (single isomer, unassigned) [Example 8a] | 100 to 1000 | 
CC(C)C[C@@H](N)COc1ccc2c(c1)OC(C1CC1)c1cnccc1-2 (single isomer, unassigned) [Example 9b] |  | IC50 (AAK1 (full length human); numeric values): > 300 nM
CCC1Oc2cc(OC[C@@H](N)CC(C)C)ccc2-c2ccncc21 (single isomer, unassigned) [Example 10b] | 10 to 100 | 
CC(C)C[C@@H](N)COc1ccc2c(c1)OCc1cnccc1-2 [Example 1, (R)-1-(5H-chromeno[3,4-c]pyridin-8-yloxy)-4-methylpentan-2-amine] |  | IC50 (GST-Xa-hAAK1; numeric values): 20 nM
N[C@@H](COc1ccc2c(c1)OCc1cnccc1-2)Cc1ccccc1 [Example 2, (R)-1-(5H-chromeno[3,4-c]pyridin-8-yloxy)-3-phenylpropan-2-amine] | 100 to 1000 | 
CC[C@@H](N)COc1ccc2c(c1)OCc1cnccc1-2 [Example 3, (R)-1-(5H-chromeno[3,4-c]pyridin-8-yloxy)butan-2-amine] | 100 to 1000 | 
CC[C@H](N)COc1ccc2c(c1)OCc1cnccc1-2 [Example 4, (S)-1-(5H-chromeno[3,4-c]pyridin-8-yloxy)butan-2-amine] | 10 to 100 | 
CC(C)C[C@@H](N)COc1ccc2c(c1)OC(C1CC1)c1cnccc1-2 (stereo partly drawn) [Example 9] | 100 to 1000 | 
CC(C)C[C@H](N)COc1ccc2c(c1)OC1(COC1)c1cnccc1-2 [Example 19, (S)-4-methyl-1-(spiro[chromeno[3,4-c]pyridine-5,3′-oxetan]-8-yloxy)pentan-2-amine] | 100 to 1000 | 

Now from value to compound, other results behind:

IC50 (GST-Xa-hAAK1; listed as IC50 ranges) [nM] | Compound | other results
1 to 10 | CC(C)C[C@H](N)COc1cc2c(cc1Br)-c1ccncc1C(C)O2 (mixture of isomers) [Example 21, (2S)-1-(9-bromo-5-methyl-5H-chromeno[3,4-c]pyridin-8-yloxy)-4-methylpentan-2-amine] | IC50 (AAK1 (full length human); listed as IC50 ranges): < 1 nM
1 to 10 | CC(C)C[C@H](N)COc1cc2c(cc1C#N)-c1ccncc1C(C)O2 (mixture of isomers) [Example 22, 8-((S)-2-amino-4-methylpentyloxy)-5-methyl-5H-chromeno[3,4-c]pyridine-9-carbonitrile] | IC50 (AAK1 (full length human); listed as IC50 ranges): < 1 nM
10 to 100 | CC1Oc2cc(OC[C@@H](N)CC3CCCC3)ccc2-c2ccncc21 (mixture of isomers) [Example 24, (2S)-1-cyclopentyl-3-(5-methyl-5H-chromeno[3,4-c]pyridin-8-yloxy)propan-2-amine] | IC50 (AAK1 (full length human); listed as IC50 ranges): 10 to 100 nM
1 to 10 | CC(C)C[C@H](N)COc1cc2c(cc1Cl)-c1ccncc1C(C(F)(F)F)O2 (mixture of isomers) [Example 27, (2S)-1-((9-chloro-5-(trifluoromethyl)-5H-chromeno[3,4-c]pyridin-8-yl)oxy)-4-methylpentan-2-amine] | IC50 (AAK1 (full length human); listed as IC50 ranges): 1 to 10 nM
1 to 10 | CC(C)C[C@H](N)COc1cc2c(cc1Br)-c1ccncc1C(C(F)(F)F)O2 (mixture of isomers) [Example 28, (2S)-1-((9-bromo-5-(trifluoromethyl)-5H-chromeno[3,4-c]pyridin-8-yl)oxy)-4-methylpentan-2-amine] | IC50 (AAK1 (full length human); listed as IC50 ranges): 1 to 10 nM
1 to 10 | CC(C)C[C@H](N)COc1cc2c(cc1I)-c1ccncc1C(C)O2 (single isomer, unassigned) [Example 31a] | 
1 to 10 | CC(C)C[C@H](N)COc1cc2c(cc1I)-c1ccncc1C(C)O2 (single isomer, unassigned) [Example 31b] | 
10 to 100 | CC(C)C[C@H](N)COc1ccc2c(c1)OC(CO)(CCl)c1cnccc1-2 (stereo partly drawn) [Example 20, (8-(((S)-2-amino-4-methylpentyl)oxy)-5-(chloromethyl)-5H-chromeno[3,4-c]pyridin-5-yl)methanol] | 
1 to 10 | CC(C)C[C@H](N)COc1cc2c(cc1C#N)-c1ccncc1CO2 [Example 23, (S)-8-(2-amino-4-methylpentyloxy)-5H-chromeno[3,4-c]pyridine-9-carbonitrile] | 
10 to 100 | CC(C)C[C@H](N)COc1ccc2c(c1)OC(C)c1cnc(N)cc1-2 (stereo partly drawn) [Example 29, 8-(((S)-2-amino-4-methylpentyl)oxy)-5-methyl-5H-chromeno[3,4-c]pyridin-2-amine] | 
10 to 100 | CC(=O)Nc1cc2c(cn1)C(C)Oc1cc(OC[C@@H](N)CC(C)C)ccc1-2 (stereo partly drawn) [Example 30, N-(8-(((S)-2-amino-4-methylpentyl)oxy)-5-methyl-5H-chromeno[3,4-c]pyridin-2-yl)acetamide] | 
10 to 100 | Cc1nccc2c1c(=O)oc1cc(OC[C@@H](N)CC(C)C)ccc12 [Example 34, (S)-8-((2-amino-4-methylpentyl)oxy)-4-methyl-5H-chromeno[3,4-c]pyridin-5-one] | 
100 to 1000 | Cc1cc2c(cn1)COc1cc(OC[C@@H](N)CC(C)C)ccc1-2 [Example 39, (S)-4-methyl-1-((2-methyl-5H-chromeno[3,4-c]pyridin-8-yl)oxy)pentan-2-amine] | 
1 to 10 | CC(=O)Nc1cc2c(cn1)COc1cc(OC[C@H](N)CC(C)C)ccc1-2 [Example 40, (R)-N-(8-(2-amino-4-methylpentyloxy)-5H-chromeno[3,4-c]pyridin-2-yl)acetamide] | 
